# Source: PMC8286840, “Identifying SARS-CoV-2 antiviral compounds by screening for small molecule inhibitors of Nsp3 papain-like protease” (Biochemical Journal, 2021)
# Where a name gives a salt, the structure may show the parent alone. Read-outs that look alike come from different tables or passages of the source.
# Legend:
# [1] = target: T1, SARS-CoV-2 PLpro (nsp3 1564–1878) (Severe acute respiratory syndrome coronavirus 2, UniProt P0DTD1); assay: biochemical; parameters: FRET-quenched peptide (Pro3) cleavage by PLpro, 10 min pre-incubation, slope over 20 min, normalised to no-compound control; conditions: high concentration screen, read-out: % of control remaining
# [2] = target: T1, SARS-CoV-2 PLpro (nsp3 1564–1878); assay: biochemical; parameters: FRET-quenched peptide (Pro3) cleavage by PLpro, 10 min pre-incubation, slope over 20 min, normalised to no-compound control; conditions: low concentration screen, read-out: % of control remaining
compound,measurement,setting,value
C=CCCCCCCCCCCC(=O)O [12-Tridecenoic acid],remaining activity at 3.75 µM,[1]; Well no.=4264,98%
same,remaining activity at 1.25 µM,[2]; Well no.=4264,91.3%
CCCCC[C@@H](/C=C/C=C\CCCCCCCC(=O)O)OO [13(S)-HPODE],remaining activity at 3.75 µM,[1]; Well no.=4388,101%
same,remaining activity at 1.25 µM,[2]; Well no.=4388,102%
"CCCCC/C=C\C/C=C\CCCCCCCCCCCC(=O)O [13(Z),16(Z)-Docosadienoic acid]",remaining activity at 3.75 µM,[1]; Well no.=4462,101%
same,remaining activity at 1.25 µM,[2]; Well no.=4462,100%
"CCCCC[C@H](O)CC[C@H]1[C@H](O)CC(=O)[C@@H]1CCCCCCC(=O)O [13,14-Dihydro-prostaglandin E1]",remaining activity at 3.75 µM,[1]; Well no.=4278,101%
same,remaining activity at 1.25 µM,[2]; Well no.=4278,102%
CC1=C(/C=C/C(C)=C/C=C/C(C)=C\C(=O)O)C(C)(C)CCC1 [13-cis Retinoic acid],remaining activity at 3.75 µM,[1]; Well no.=3134,98.9%
same,remaining activity at 3.75 µM,[1]; Well no.=4430,96%
same,remaining activity at 1.25 µM,[2]; Well no.=3134,98.4%
same,remaining activity at 1.25 µM,[2]; Well no.=4430,95.1%
CC1=C(/C=C/C(C)=C/C=C/C(C)=C\C(=O)O)C(C)(C)CCC1 [13-cis-retinoic acid],remaining activity at 3.75 µM,[1]; Well no.=1348,101%
same,remaining activity at 1.25 µM,[2]; Well no.=1348,95.9%
CCCCCCCC/C=C/CCCCCCCCCCCCC(=O)O [14(E)-Tricosenoic acid],remaining activity at 3.75 µM,[1]; Well no.=4500,94.8%
same,remaining activity at 1.25 µM,[2]; Well no.=4500,95.4%
CCCCCCCC/C=C\CCCCCCCCCCCCC(=O)O [14(Z)-Tricosenoic acid],remaining activity at 3.75 µM,[1]; Well no.=4498,93.7%
same,remaining activity at 1.25 µM,[2]; Well no.=4498,99.3%
"CCCCCC#CC[C@@H](O)/C=C/C=C/C=C\[C@@H](O)CCCC(=O)O [14,15-Dehydroleukotriene B4]",remaining activity at 3.75 µM,[1]; Well no.=4518,94.4%
same,remaining activity at 1.25 µM,[2]; Well no.=4518,97.4%
CCCCC[C@H](O)/C=C/C=C\C/C=C\C/C=C\CCCC(=O)O [15(S)-HETE],remaining activity at 3.75 µM,[1]; Well no.=4289,97.2%
same,remaining activity at 1.25 µM,[2]; Well no.=4289,102%
CCCCC[C@H](O)/C=C/C=C\C/C=C\CCCCCCC(=O)O [15(S)-HETrE],remaining activity at 3.75 µM,[1]; Well no.=4229,106%
same,remaining activity at 1.25 µM,[2]; Well no.=4229,99.3%
CCCCC[C@@H](/C=C/C=C\CCCCCCCCCC(=O)O)OO [15(S)-HPEDE],remaining activity at 3.75 µM,[1]; Well no.=4333,105%
same,remaining activity at 1.25 µM,[2]; Well no.=4333,108%
CC/C=C\C[C@@H](/C=C/C=C\C/C=C\C/C=C\CCCC(=O)O)OO [15(S)-HPEPE],remaining activity at 3.75 µM,[1]; Well no.=4335,102%
same,remaining activity at 1.25 µM,[2]; Well no.=4335,103%
CCCCC[C@@H](/C=C/C=C\C/C=C\C/C=C\CCCC(=O)O)OO [15(S)-HPETE],remaining activity at 3.75 µM,[1]; Well no.=4331,98.7%
same,remaining activity at 1.25 µM,[2]; Well no.=4331,99.3%
CCCCCCCC/C=C\CCCCCCCCCCCCCC(=O)O [15(Z)-Tetracosenoic acid],remaining activity at 3.75 µM,[1]; Well no.=4504,98.5%
same,remaining activity at 1.25 µM,[2]; Well no.=4504,93.9%
CCCCCC(=O)/C=C/[C@H]1[C@H](O)CC(=O)[C@@H]1C/C=C\CCCC(=O)O [15-keto-prostaglandin E2],remaining activity at 3.75 µM,[1]; Well no.=4485,96.6%
same,remaining activity at 1.25 µM,[2]; Well no.=4485,89%
CCCCCC(=O)/C=C/[C@@H]1[C@@H](C/C=C\CCCC(=O)O)[C@@H](O)C[C@H]1O [15-keto-prostaglandin F2a],remaining activity at 3.75 µM,[1]; Well no.=4571,88.5%
same,remaining activity at 1.25 µM,[2]; Well no.=4571,90.1%
"CCCCC(C)(C)[C@H](O)/C=C/[C@H]1[C@H](O)CC(=O)[C@@H]1C/C=C\CCCC(=O)O [16,16-Dimethyl-prostaglandin E2]",remaining activity at 3.75 µM,[1]; Well no.=4517,99.3%
same,remaining activity at 1.25 µM,[2]; Well no.=4517,96.1%
C[C@@]12CCc3occc3[C@H]1CC[C@]13CC(=O)[C@H](CC[C@H]12)C3 [16-Oxocafestol],remaining activity at 3.75 µM,[1]; Well no.=3669,91.5%
same,remaining activity at 1.25 µM,[2]; Well no.=3669,92.6%
C[C@@]12C=Cc3occc3[C@H]1CC[C@]13CC(=O)[C@H](CC[C@H]12)C3 [16-Oxokahweol],remaining activity at 3.75 µM,[1]; Well no.=3693,99%
same,remaining activity at 1.25 µM,[2]; Well no.=3693,94.8%
C#CCCCCCCCCCCCCCCCC(=O)O [17-Octadecynoic acid],remaining activity at 3.75 µM,[1]; Well no.=4351,104%
same,remaining activity at 1.25 µM,[2]; Well no.=4351,105%
C[C@@H](O)CCC[C@H](O)/C=C/[C@H]1[C@H](O)CC(=O)[C@@H]1C/C=C\CCCC(=O)O [19(R)-Hydroxy-prostaglandin E2],remaining activity at 3.75 µM,[1]; Well no.=4533,88.8%
same,remaining activity at 1.25 µM,[2]; Well no.=4533,91.3%
O=C(O)CCCC/C=C\C[C@@H](O)/C=C/C=C/C=C\[C@@H](O)CCCC(=O)O [20-Carboxy-leukotriene B4],remaining activity at 3.75 µM,[1]; Well no.=4427,98.4%
same,remaining activity at 1.25 µM,[2]; Well no.=4427,94.3%
O=C(O)CCC[C@H](O)\C=C/C=C/C=C/[C@H](O)C/C=C\CCCCCO [20-Hydroxy-leukotriene B4],remaining activity at 3.75 µM,[1]; Well no.=4425,103%
same,remaining activity at 1.25 µM,[2]; Well no.=4425,101%
"C=C1CC[C@H](O)C/C1=C\C=C1/CCC[C@]2(C)[C@@H]([C@H](C)CC[C@@H](O)C(C)(C)O)CC[C@@H]12 [24(R),25-Dihydroxyvitamin D3]",remaining activity at 3.75 µM,[1]; Well no.=4424,88.6%
same,remaining activity at 1.25 µM,[2]; Well no.=4424,95.3%
C[C@H](CCCC(C)(C)O)[C@H]1CC[C@H]2[C@@H]3CC=C4C[C@@H](O)CC[C@]4(C)[C@H]3CC[C@]12C [25-Hydroxycholesterol],remaining activity at 3.75 µM,[1]; Well no.=6353,101%
same,remaining activity at 1.25 µM,[2]; Well no.=6353,101%
CO[C@H]1C[C@@H]2CC[C@@H](C)[C@@](O)(O2)C(=O)C(=O)N2CCCC[C@H]2C(=O)O[C@H]([C@H](C)C[C@@H]2CC[C@H](n3ncnn3)[C@H](OC)C2)CC(=O)[C@H](C)/C=C(\C)[C@@H](O)[C@@H](OC)C(=O)[C@H](C)C[C@H](C)/C=C/C=C/C=C/1C [42-(2-Tetrazolyl)rapamycin],remaining activity at 3.75 µM,[1]; Well no.=7592,91.6%
same,remaining activity at 1.25 µM,[2]; Well no.=7592,91%
CC(N)=NCc1cccc(CN)c1 [1400W dihydrochloride],remaining activity at 3.75 µM,[1]; Well no.=1434,90.8%
same,remaining activity at 1.25 µM,[2]; Well no.=1434,88%
"Nc1ccn([C@H]2CC[C@@H](CO)O2)c(=O)n1 [""2',3' - Dideoxycytidine""]",remaining activity at 3.75 µM,[1]; Well no.=1980,102%
same,remaining activity at 1.25 µM,[2]; Well no.=1980,103%
"COc1cc(/C=C/C(=O)CC(=O)/C=C/c2ccc(O)cc2)ccc1O [(1E,6E)-1-(4-hydroxy-3-methoxyphenyl)-7-(4-hydroxyphenyl)-1,6-heptadiene-3,5-dione]",remaining activity at 3.75 µM,[1]; Well no.=5795,95.2%
same,remaining activity at 1.25 µM,[2]; Well no.=5795,90.1%
"O=C(Nc1cc(Cl)cc(Cl)c1)[C@H]1CCCC[C@H]1C(=O)O [(1R,2S)-VU0155041]",remaining activity at 3.75 µM,[1]; Well no.=8475,103%
same,remaining activity at 1.25 µM,[2]; Well no.=8475,99%
CCCCCCCCCCCCCCCCCCc1ccc(C(=O)/C=C/C(=O)O)cc1 [(2E)-4-(4-octadecylphenyl)-4-oxo-2-butenoic acid],remaining activity at 3.75 µM,[1]; Well no.=5554,99.3%
same,remaining activity at 1.25 µM,[2]; Well no.=5554,97.9%
O=C(/C=C/c1cccnc1)NCCCCC1CCN(C(=O)c2ccccc2)CC1 [(2E)-N-[4-(1-benzoyl-4-piperidinyl)butyl]-3-(3-pyridinyl)-2-propenamide hydrochloride hydrate],remaining activity at 3.75 µM,[1]; Well no.=5694,92.8%
same,remaining activity at 1.25 µM,[2]; Well no.=5694,97.8%
